# Source: US9682962B2, “Pyrazolyl pyrimidinamine compound and application thereof” (SHENYANG SINOCHEM AGROCHEMICALS R&D CO., LTD., priority 2013, dated 2017)
# Tests used:
# [1] = system: wheat powdery mildew; assay: Protectant activity in vivo (whole plant), wheat powdery mildew; settings: for control effect against wheat powdery mildew (%): protectant activity
# Procedure: (§1) The method is as followed: The whole plant is used in this test. The compound is dissolved in a proper solvent to get mother solution. The proper solvent is selected from acetone, methanol, DMF and so on according to their dissolving capability to the sample. […] The testing solution is sprayed to the host plant by a special plant sprayer. The plant is inoculated with fungus after 24 hours. According to the infecting characteristic of fungus, the plant is stored in a humidity chamber and then transferred into greenhouse after infection is finished. And the other plants are placed in greenhouse directly.
# [2] = system: cucumber anthracnose; assay: Protectant activity in vivo (whole plant), cucumber anthracnose; settings: protectant activity
# Procedure: as §1
# [3] = system: cucumber downy mildew; assay: Protectant activity in vivo (whole plant), cucumber downy mildew; settings: protectant activity
# Procedure: as §1
# [4] = system: Green peach aphids (Myzus Persicae Sulzer); assay: Bioactivity test against green peach aphid (airbrush foliar spray); assay type: in vivo
# Procedure: Compounds were dissolved in mixed solvent (acetone:methanol=1:1), and diluted to required concentration with water containing 0.1% of tween 80.
# Diamond back moth, armyworm, peach aphid and carmine spider mite were used as targets and the method of spraying by airbrush was used for determination of insecticidal bioassays.
# Method: Filter papers were put in culture dishes (Diameter=6 cm), and water was dripped on filter papers for preserving moisture. Green peach aphids (Myzus Persicae Sulzer) were maintained on cabbage. Leaves (Diameter=3 cm) of approximately 15-30 aphids were put in the culture dishes. Bioactivity tests were used the method of Airbrush Foliar Spray, pressure=10 psi (0.7 kg/cm2), spray volume=0.5 mL. The studies were conducted at […] 25±1 C in incubator cabinets with 60±5% RH. Survey the survival aphids after 48 h and calculate the death rates.
Structure (SMILES),control effect against wheat powdery mildew (%) ([1]; 6.25 mg/L),control effect against wheat powdery mildew (%) ([1]; 25 mg/L),control effect against wheat powdery mildew (%) ([1]; 100 mg/L),control effect against wheat powdery mildew (%) ([1]; 400 mg/L),control effect against cucumber downy mildew(%) ([3]; 25 mg/L),control effect against cucumber downy mildew(%) ([3]; 50 mg/L),control effect against cucumber downy mildew(%) ([3]; 100 mg/L),control effect against cucumber downy mildew(%) ([3]; 400 mg/L),Insecticidal activity against peach aphid (%) ([4]; 10 mg/L),Insecticidal activity against peach aphid (%) ([4]; 100 mg/L),Insecticidal activity against peach aphid (%) ([4]; 600 mg/L),other results
CCc1ncnc(NCCc2cnn(-c3ccc(OC(F)(F)F)cc3)c2)c1Cl [Compound 596],95%,100%,100%,100%,–,–,–,–,–,–,–,control effect against cucumber anthracnose (%) ([2]; 6.25 mg/L): 75%; control effect against cucumber anthracnose (%) ([2]; 25 mg/L): 98%; control effect against cucumber anthracnose (%) ([2]; 100 mg/L): 100%; control effect against cucumber anthracnose (%) ([2]; 400 mg/L): 100%
Fc1ccc(-n2cc(CCNc3ncnc(C(F)F)c3Cl)cn2)cc1 [Compound 800],95%,100%,100%,100%,98%,100%,100%,100%,71%,100%,100%,–
CCc1ncnc(NCCc2cnn(-c3ccc(Cl)cc3Cl)c2)c1Cl [Compound 539],–,–,–,–,100%,100%,100%,100%,–,–,–,–
CCc1ncnc(NCCc2cnn(-c3ccc(C(F)(F)F)cc3)c2)c1Cl [Compound 587],–,–,–,–,–,–,–,–,–,93%,100%,–
FC(F)c1ncnc(NCCc2cnn(-c3ccc(OC(F)(F)F)cc3)c2)c1Cl [Compound 874],100%,100%,100%,100%,–,–,–,–,–,–,–,control effect against cucumber anthracnose (%) ([2]; 0.78 mg/L): 0%; control effect against cucumber anthracnose (%) ([2]; 1.56 mg/L): 20%; control effect against cucumber anthracnose (%) ([2]; 3.13 mg/L): 60%; control effect against cucumber anthracnose (%) ([2]; 6.25 mg/L): 98%; control effect against cucumber anthracnose (%) ([2]; 25 mg/L): 100%; control effect against cucumber anthracnose (%) ([2]; 100 mg/L): 100%; control effect against cucumber anthracnose (%) ([2]; 400 mg/L): 100%
Cc1ncnc(NCCc2cnn(-c3ccc(Cl)cc3Cl)c2)c1Cl [Compound 261],50%,60%,80%,100%,100%,100%,100%,100%,–,–,–,control effect against cucumber downy mildew(%) ([3]; 12.5 mg/L): 100%
CCc1ncnc(NCCc2cnn(-c3ncccc3Cl)c2)c1Cl [Compound 4733],–,–,–,–,–,–,–,–,88%,100%,100%,"control against Green Peach Aphid (death rate) ([4]; 10 ppm, after 48 h): more than 80%"
COc1ccc(-n2cc(CCNc3ncnc(C(F)F)c3Cl)cn2)cc1 [Compound 868],100%,100%,100%,100%,100%,100%,100%,100%,–,–,–,control effect against cucumber downy mildew(%) ([3]; 12.5 mg/L): 85%; protectant activity against wheat powdery mildew in vivo ([1]; 1.6 ppm): 80%
COc1ccc(-n2cc(CCNc3nc(C)nc(C)c3Cl)cn2)cc1 [Compound 1424],–,–,–,–,98%,100%,100%,100%,–,–,–,–
Cc1ccc(-n2cc(CCNc3ncnc(C(F)F)c3Cl)cn2)cc1 [Compound 853],–,–,–,–,80%,100%,100%,100%,–,–,–,–
CCc1ncnc(NCCc2cnn(-c3ccc(F)cc3)c2)c1Cl [Compound 522],–,–,–,–,–,–,–,–,33%,96%,100%,–
Cc1ncnc(NCCc2cnn(C(C)(C)C)c2)c1Cl [Compound 8],–,–,100%,100%,–,–,–,–,–,–,–,control effect against cucumber anthracnose (%) ([2]; 6.25 mg/L): 60%; control effect against cucumber anthracnose (%) ([2]; 25 mg/L): 80%; control effect against cucumber anthracnose (%) ([2]; 100 mg/L): 90%; control effect against cucumber anthracnose (%) ([2]; 400 mg/L): 100%
CCc1ncnc(NCCc2cnn(-c3ccc(C)cc3)c2)c1Cl [Compound 575],–,–,–,–,–,–,–,–,73%,88%,92%,–
FC(F)c1ncnc(NCCc2cnn(Cc3ccc(Cl)cc3)c2)c1Cl [Compound 5935],–,–,–,–,95%,100%,100%,100%,61%,56%,100%,control effect against cucumber downy mildew(%) ([3]; 12.5 mg/L): 50%
Cc1ncnc(NCCc2cnn(-c3ccc(F)cc3)c2)c1Cl [Compound 244],50%,80%,100%,100%,–,–,–,–,65%,71%,91%,–
Cc1ncnc(NCCc2cnn(-c3ccc(C(F)(F)F)cc3)c2)c1Cl [Compound 309],80%,85%,90%,100%,–,–,–,–,–,–,–,–
FC(F)c1ncnc(NCCc2cnn(-c3ccc(Cl)cc3)c2)c1Cl [Compound 815],80%,100%,100%,100%,–,–,–,–,41%,94%,100%,–
CCc1ncnc(NCCc2cnn(-c3ccc(OC)cc3)c2)c1Cl [Compound 590],–,–,–,–,100%,100%,100%,100%,–,–,–,–
COc1ccc(-n2cc(CCNc3ncnc(C)c3Cl)cn2)cc1 [Compound 312],95%,100%,100%,100%,100%,100%,100%,100%,–,–,–,–
Cc1ncnc(NCCc2cnn(-c3c(Cl)cc(C(F)(F)F)cc3Cl)c2)c1Cl [Compound 406],90%,98%,100%,100%,–,–,–,–,28%,95%,100%,–
